Experimental data from patent US20240316079A1, “USE OF AKR1C3-ACTIVATED COMPOUND” (OBI PHARMA, INC., priority 2021, published 2024).
Like-named read-outs stand apart in the source and are kept apart here.

Key:
HLF = experiment: In vitro proliferation assay, liver cancer cell line HLF; format: cell-based; details: Homo sapiens, 96 hours of drug exposure, AKR1C3 protein Low, read-out: 3424 IC50
Method: (§1) IC50 was calculated as described above.

[1] = tested on: H460 subcutaneous xenograft; format: in vivo, mice; details: 1 week off, Q7D × 2
Method: (§2) In vivo anti-tumor activity of 3424 was evaluated using GFP-expressing cancer cell lines in an orthotopic liver cancer model (HepG2) and a subcutaneous lung cancer model (H460) CDX models at AntiCancer, Inc (Beijing, China). Female athymic nude mice (6 weeks; BALB/c-nu, Beijing HFK Bioscience Co., Ltd., Beijing, China) were used in the studies. Each mouse was implanted with a HepG2-GFP tumor chunk (˜1 mm^3 in diameter) in the right lobe of the liver for tumor development or inoculated subcutaneously with H460-GFP tumor chunk (˜1 mm^3 in diameter). About 3-10 days later, whole mouse body scan was performed using FluorVivo Model-100 fluorescence imager (INDEC Biosystems, Inc., Los Altos, CA). Mice with similar fluorescent areas were selected and randomly grouped. Both cell lines expressed high level of AKR1C3. Prodrug 3424 was dosed intravenously (IV) at 1.25, 2.5 mg/kg or 5 mg/kg Q7D×2 for the HepG2 orthotopic model or at 0.625, 1.25 or 2.5 mg/kg for the H460 xenograft model with a regimen of Q7D×2, 1 week off, then Q7D×2 again. Sorafenib was used as the positive control in the HepG2 model and was dosed orally at 30 mg/kg with a regimen of QD×5×7 cycles. Taxol was used as the positive control in the H460 model and was administered at 15 mg/kg IV with a regimen of BIW×4. During the experiments, mice were observed daily and body weight was measured twice a week. Tumor burden was monitored twice a week either by caliper measurement (H460) or FluorVivo fluorescence imager (H460-GFP and HepG2-GFP).

[2] = tested on: HepG2 orthotopic xenograft; format: in vivo, mice; details: for TGI: Day 34
Method: as §2

recombinant human AKR1C1 = biological target: T1, recombinant human AKR1C1 (Homo sapiens, UniProt Q04828); experiment: Incubation of 3424 with AKR1C1 (2660 production, LC-MS/MS); format: biochemical
T1 construct: purchased Sigma

LU2505 PDX = experiment: Lung cancer PDX model LU2505 (higher AKR1C3); format: in vivo, mice
Method: (§3) Anti-tumor activity of 3424 in PDX models was assessed at CrownBio Bioscience (Beijing, China) Inc. using female BALB/c nude mice (6-7 weeks old, Beijing Anikeeper Biotech Co., Ltd, Beijing, China). Tumor fragments (PA1280, GA6201, LU2057 and LU2505) from stock mice inoculated with selected primary human cancer tissues (pancreatic, gastric cancer, and lung) were harvested and used for inoculation into BALB/c nude mice. Each mouse was inoculated subcutaneously for tumor development. Mice were allocated randomly into experimental groups when the average tumor size reached ˜100 mm^3) by using StudyDirector™ Ver 3.1.399.19 (Studylog Systems, Inc., S. San Francisco, CA, USA). Prodrug 3424 was administered IV at the indicated doses with a regimen of Q7D×3. Each group consisted of 5-6 mice. The grouping day was denoted as Day 0. Prodrug 3424 was administrated to the tumor-bearing mice from Day 0 through Days as indicated for each study.

PLC/PRF/5 = experiment: In vitro proliferation assay, liver cancer cell line PLC/PRF/5; format: cell-based; details: Homo sapiens, 96 hours of drug exposure, AKR1C3 protein Medium, read-out: 3424 IC50
Method: as §1

NCI-H2228 = experiment: In vitro proliferation assay, NSCLC cell line NCI-H2228; format: cell-based, human
Method: as §1

SNU-398 = experiment: In vitro proliferation assay, liver cancer cell line SNU-398; format: cell-based; details: Homo sapiens, 96 hours of drug exposure, AKR1C3 protein Low, read-out: 3424 IC50
Method: as §1

HLE = experiment: In vitro proliferation assay, liver cancer cell line HLE; format: cell-based; details: Homo sapiens, 96 hours of drug exposure, AKR1C3 protein Medium, read-out: 3424 IC50
Method: as §1

PA1280 PDX = experiment: Pancreatic cancer PDX model PA1280; format: in vivo, mice
Method: as §3

NCI-H1792 = experiment: In vitro proliferation assay, NSCLC cell line NCI-H1792; format: cell-based; details: Homo sapiens, 72 hours of drug exposure, read-out: 3424 IC50
Method: as §1

LU2057 PDX = experiment: Lung cancer PDX model LU2057 (low AKR1C3); format: in vivo, mice
Method: as §3

HuCCT1 = experiment: In vitro proliferation assay, liver cancer cell line HuCCT1; format: cell-based; details: Homo sapiens, HuCCT-1, 96 hours of drug exposure, AKR1C3 protein Low, read-out: 3424 IC50
Method: as §1

A498 xenograft = tested on: A498 xenograft
Method: (§4) Death and observed clinical signs were recorded on the basis of the numbers of animals within each subset.

SNU-16 xenograft = tested on: SNU-16 xenograft
Method: as §4

SNU-387 = experiment: In vitro proliferation assay, liver cancer cell line SNU-387; format: cell-based; details: Homo sapiens, 96 hours of drug exposure, AKR1C3 protein Medium, read-out: 3424 IC50
Method: as §1

NCIH1755 = experiment: In vitro proliferation assay, NSCLC cell line NCIH1755; format: cell-based; details: Homo sapiens, NCI-H1755, 72 hours of drug exposure, read-out: 3424 IC50
Method: as §1

NCI-H1944 = experiment: In vitro proliferation assay, NSCLC cell line NCI-H1944; format: cell-based; details: Homo sapiens, 72 hours of drug exposure, read-out: 3424 IC50
Method: as §1

H460 cells = experiment: Cytotoxicity in H460 cells in the absence or presence of AKR1C3 inhibitor 3021; details: Homo sapiens, NCI-H460, 2 h, read-out: IC50 (cytotoxicity)
Method: Exponentially growing cells were seeded 24 hours before the addition of test compounds. After addition of test compounds, the plates were incubated for the indicated hours at 37° C. in a standard tissue culture incubator. At the end of the experiment, the viable cells were detected using either a CellTiter Glo (CTG) assay kit or AlamarBlue^(28,29). […] For 3021 experiments, cells were pretreated with 3 μM of 3021 for 2 h prior to compound treatment under air. IC50 was calculated as described above.

NCI-H2110 = experiment: In vitro proliferation assay, NSCLC cell line NCI-H2110; format: cell-based; details: Homo sapiens, 72 hours of drug exposure, read-out: 3424 IC50
Method: as §1

NCI-H522 = experiment: In vitro proliferation assay, NSCLC cell line NCI-H522; format: cell-based; details: Homo sapiens, 72 hours of drug exposure, read-out: 3424 IC50
Method: as §1

[3] = 3424 2.5 mg/kg weekly IV for 4 doses

T1 sequence (Q04828 whole entry): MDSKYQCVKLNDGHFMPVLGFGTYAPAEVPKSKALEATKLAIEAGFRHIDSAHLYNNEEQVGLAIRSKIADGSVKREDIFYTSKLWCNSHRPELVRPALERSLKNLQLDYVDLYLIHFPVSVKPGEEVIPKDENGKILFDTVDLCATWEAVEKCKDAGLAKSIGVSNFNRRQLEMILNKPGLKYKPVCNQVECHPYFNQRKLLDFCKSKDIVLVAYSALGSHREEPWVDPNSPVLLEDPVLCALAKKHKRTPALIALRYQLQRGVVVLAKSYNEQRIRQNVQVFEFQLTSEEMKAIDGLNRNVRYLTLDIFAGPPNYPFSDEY

In the case of `C[C@H](OP(=O)(N1CC1)N1CC1)c1ccc([N+](=O)[O-])c(Oc2cccc(C(=O)N(C)C)c2)c1` [Compound 3424, (S)-1-(3-(3-N,N-dimethylaminocarbonyl)phenoxyl-4-mtrophenyl)-1-ethyl-N,N′-bis(ethylene)phosphoramidate], the IC50 (HLF) is reported as greater than 1000 nM, the TGI ([1]; 3424 0.625 mg/kg i.v. Q7D × 2) is reported as 60.2% and the TGI ([1]; 3424 1.25 mg/kg i.v. Q7D × 2) is reported as 67.2%. It also gave a TGI ([1]; 3424 2.5 mg/kg i.v. Q7D × 2, 2.5 mg/kg) of 88%, a TGI ([2]; 3424 1.25 mg/kg i.v. Q7D × 2) of 52.4% and a complete regression rate ([2]; 3424 2.5 mg/kg i.v. Q7D × 2) of 80%. The TGI ([2]; 3424 2.5 mg/kg i.v. Q7D × 2) was 91.5%, the complete regression rate ([2]; 3424 5 mg/kg i.v. Q7D × 2) was 100% and the TGI ([2]; 3424 5 mg/kg i.v. Q7D × 2) was 101.2%. The body weight loss ([2]; mouse, in vivo) was “no body weight loss”, the “metabolism by AKR1C1” value (recombinant human AKR1C1) was “not metabolized” and the “2660 Concentration” value (recombinant human AKR1C1; 3424 concentration 50 μM, incubation with AKR1C1, BQL: below quantification limit (0.25 ng/mL)) was “BQL”. It also gave a TGI (LU2505 PDX; 3424 1.25 mg/kg i.v. Q7D × 3) of 105.0%, a TGI (LU2505 PDX; 3424 2.5 mg/kg i.v. Q7D × 3) of 105.2% and a TGI (LU2505 PDX; 3424 5 mg/kg i.v. Q7D × 3) of 105.2%. The “tolerability / body weight loss” value (LU2505 PDX; LU2505, all tested doses) was “no body weight loss”, the IC50 (PLC/PRF/5) was 167 nM and the IC50 (NCI-H2228; Homo sapiens, NCI-H2228, 72 hours of drug exposure, read-out: 3424 IC50) was 0.21 nM. For the same compound, the “enhanced cytotoxicity in line expressing high AKR1C3 versus low/no AKR1C3” value (NCI-H2228; NCI-H2228 NSCLC line) was “up to 5000 fold”, the IC50 (SNU-398) was greater than 1000 nM and the IC50 (HLE) was 113 nM. The TGI (PA1280 PDX; 3424 2.5 mg/kg i.v. Q7D × 3) was 77.4%, the “tolerability / body weight loss” value (PA1280 PDX; PA1280, all tested doses) was “no body weight loss” and the IC50 (NCI-H1792) was 4.5 nM. For the same compound, the TGI (LU2057 PDX; 3424 2.5 mg/kg i.v. Q7D × 3) was −20.9%, the “tolerability / body weight loss” value (LU2057 PDX; LU2057, all tested doses) was “no body weight loss” and the IC50 (HuCCT1) was 696 nM. The TGI (A498 xenograft; [3]) was 73%, the “tolerability / body weight loss during treatment” value (A498 xenograft; A498 model, data not shown) was “no significant body weight loss” and the TGI (SNU-16 xenograft; [3]) was 87.8%. The TGI (SNU-16 xenograft; 3424 5 mg/kg weekly IV for 4 doses) was 96.2%, the “tolerability / body weight loss during treatment” value (SNU-16 xenograft; SNU-16 model, data not shown) was “no significant body weight loss” and the IC50 (SNU-387) was 103 nM. It also gave an IC50 (NCIH1755) of 8.2 nM, an IC50 (NCI-H1944) of 2.3 nM and an IC50 (H460 cells) of 4 nM. The IC50 (NCI-H2110) was 1.1 nM and the IC50 (NCI-H522) was greater than 1000 nM.
